This note sets out measurements from patent publication US20090298894A1, “AMINO ACID COMPOUNDS” (Asahi Kasei Pharma Corporation, priority 2008, published 2009).

Molecules are shown by their SMILES. Structures can show the parent of a compound that is named as a salt.

T1 sequence (P21453 whole entry): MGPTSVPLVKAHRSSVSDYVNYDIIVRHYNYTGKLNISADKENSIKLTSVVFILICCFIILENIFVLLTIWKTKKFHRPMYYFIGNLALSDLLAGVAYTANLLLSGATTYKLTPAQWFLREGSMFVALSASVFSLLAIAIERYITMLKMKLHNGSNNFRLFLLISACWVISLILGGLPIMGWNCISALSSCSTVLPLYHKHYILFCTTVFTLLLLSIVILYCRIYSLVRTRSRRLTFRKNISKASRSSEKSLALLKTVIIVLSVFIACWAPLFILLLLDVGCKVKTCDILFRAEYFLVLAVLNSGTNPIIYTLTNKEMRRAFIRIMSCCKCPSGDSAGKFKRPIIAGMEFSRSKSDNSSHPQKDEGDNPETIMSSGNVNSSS

This experiment addresses T1, human S1P1 (Homo sapiens, UniProt P21453).
T1 construct: expressed in transfected cells
The experiment in a line: 35S-GTPγS binding assay using a membrane prepared from CHO cells which stably express S1P1 receptor. Type of experiment: biochemical. The conditions noted are these: CHO cell membrane fraction stably expressing human S1P1, read-out: EC50 (concentration of agonist required to give 50% of its own maximum increase ratio), human S1P1. How it is done: ^35S-GTPγS Binding Assay Using a Membrane Prepared from CHO Cells Which Stably Express S1P1 Receptor
Functional activation of human S1P1 by the compounds was determined based on quantification of ^35S-GTPγS binding to G protein due to the receptor activation, by using a cell membrane fraction prepared from CHO cells in which human S1P1 are stably expressed. As for human S1P1, the above described human S1P1 was used. Membrane proteins as prepared and various concentrations of sphingosine-1-phosphate or the compounds diluted in a solvent such as DMSO were incubated in a solution comprising 20 mM Tris-Cl (pH 7.5), 100 mM NaCl, 10 mM MgCl2, […] (Upstate), 0.1% BSA (fatty acid free, Sigma) and 25 pM ^35S-GTPγS (specific activity 1250 Ci/mmol) in 96 well microtiter plates. Binding was performed by incubating them for 90 minutes at room temperature, and then terminated by harvesting the membrane proteins onto multiscreeen harvest FB plates (Millipore) using Millipore multiscreen separation system. After drying the harvest plates at least for 12 hours, 25 μl of MicroScint-O (Perkin Elmer) was added to each well and radioactivity was measured using a Top Counter.
Having the value measured for the well to which a solvent has been added as a control value, the agonist activity of the compounds was determined by comparing the increase in the well to which a test compound has been added to the control value, and therefore an increase ratio for each concentration of the compounds was obtained. EC50 values were culcurated as defined to be the concentration of agonist required to give 50% of its own maximum increase ratio.
Background: Binding of GTPγS marks nucleotide exchange on a G protein.
Take `CSc1ccccc1-c1ccc(-c2nc(-c3ccc4c(c3)CCC4N[C@H]3C[C@H](C(=O)O)C3)no2)cc1C` (mixture of isomers) [Example 6, 1,3-Trans-3-(5-(5-(2-methyl-2′-methylthiobiphenyl-4-yl)-1,2,4-oxadiazol-3-yl)-2,3-dihydro-1H-inden-1-ylamino)cyclobutane carboxylic acid hydrochloric acid salt]: the EC50 was less than 10 nM.
The value for `Cc1cc(-c2nc(-c3ccc4c(c3)CCC4N[C@H]3C[C@H](C(=O)O)C3)no2)cc(C)c1-c1ccccc1` (stereo partly drawn) [Example 2] was less than 10 nM; that for `Cc1cc(-c2nc(-c3ccc4c(c3)CCC4N[C@H]3C[C@H](C(=O)O)C3)no2)ccc1-c1ccsc1` (stereo partly drawn) [Example 3] was less than 10 nM; that for `Cc1cc(-c2nc(-c3ccc4c(c3)CCC4N[C@H]3C[C@H](C(=O)O)C3)no2)ccc1-c1cccc(F)c1` (stereo partly drawn) [Example 4] was less than 10 nM.
The value for `Cc1cc(-c2nc(-c3ccc4c(c3)CCC4N[C@H]3C[C@H](C(=O)O)C3)no2)c(F)cc1-c1ccsc1` (stereo partly drawn) [Example 5] was less than 10 nM; that for `CSc1ccccc1-c1ccc(-c2nc(-c3ccc4c(c3)CN([C@H]3C[C@H](C(=O)O)C3)C4)no2)cc1C` [Example 10] was less than 10 nM; that for `Cc1cc(-c2nc(-c3ccc4c(c3)CCC4N[C@H]3C[C@H](C(=O)O)C3)no2)c(F)cc1-c1ccccc1` (stereo partly drawn) [Example 12] was less than 10 nM.
The same measure for `Cc1cc(-c2nc(-c3ccc4c(c3)CCC4N[C@H]3C[C@H](C(=O)O)C3)no2)c(F)cc1-c1ccoc1` (stereo partly drawn) [Example 13]: less than 10 nM; for `Cc1cc(-c2nc(-c3ccc4c(c3)CCC4N[C@H]3C[C@H](C(=O)O)C3)no2)ccc1-c1ccoc1` (stereo partly drawn) [Example 14]: less than 10 nM; for `Cc1cc(-c2nc(-c3ccc4c(c3)CCC4N[C@H]3C[C@H](C(=O)O)C3)no2)cc(C)c1-c1ccccc1F` (stereo partly drawn) [Example 15]: less than 10 nM.
With `Cc1cc(-c2nc(-c3ccc4c(c3)CCC4N[C@H]3C[C@H](C(=O)O)C3)no2)cc(C)c1-c1ccsc1` (stereo partly drawn) [Example 16], the EC50 is less than 10 nM.
The value for `Cc1cc(-c2nc(-c3ccc4c(c3)CCC4N[C@H]3C[C@H](C(=O)O)C3)no2)ccc1-c1ccccc1OC(F)(F)F` (stereo partly drawn) [Example 17] was less than 10 nM.
The value for `Cc1cc(-c2nc(-c3ccc4c(c3)CCC4N[C@H]3C[C@H](C(=O)O)C3)no2)ccc1-c1ccccc1F` (stereo partly drawn) [Example 20] was less than 10 nM; that for `Cc1cc(-c2nc(-c3ccc4c(c3)CCC4N[C@H]3C[C@H](C(=O)O)C3)no2)ccc1-c1ccccc1C(F)(F)F` (stereo partly drawn) [Example 21] was less than 10 nM; that for `Cc1cscc1-c1c(C)cc(-c2nc(-c3ccc4c(c3)CCC4N[C@H]3C[C@H](C(=O)O)C3)no2)cc1C` (stereo partly drawn) [Example 22] was less than 10 nM.
On to `Cc1cc(-c2nc(-c3ccc4c(c3)CCC4N[C@H]3C[C@H](C(=O)O)C3)no2)c(F)cc1-c1cccc(F)c1` (stereo partly drawn) [Example 23], for which the EC50 is less than 10 nM.
The same measure for `Cc1cc(-c2nc(-c3ccc4c(c3)CCC4N[C@H]3C[C@H](C(=O)O)C3)no2)c(F)cc1-c1ccccc1OC(F)(F)F` (stereo partly drawn) [Example 24]: less than 10 nM; for `Cc1cc(-c2nc(-c3ccc4c(c3)CCC4N[C@H]3C[C@H](C(=O)O)C3)no2)ccc1-c1cscc1C` (stereo partly drawn) [Example 25]: less than 10 nM; for `Cc1cc(-c2nc(-c3ccc4c(c3)CCC4N[C@H]3C[C@H](C(=O)O)C3)no2)c(F)cc1-c1ccccc1F` (stereo partly drawn) [Example 26]: less than 10 nM.
As to `Cc1cc(-c2nc(-c3ccc4c(c3)CCC4N[C@H]3C[C@H](C(=O)O)C3)no2)ccc1-c1cccc(F)c1F` (stereo partly drawn) [Example 28], the EC50 was less than 10 nM.
The same measure for `Cc1cc(-c2nc(-c3ccc4c(c3)CCC4N[C@H]3C[C@H](C(=O)O)C3)no2)ccc1-c1cc(F)ccc1F` (stereo partly drawn) [Example 29]: less than 10 nM; for `Cc1cc(-c2nc(-c3ccc4c(c3)CCC4N[C@H]3C[C@H](C(=O)O)C3)no2)c(F)cc1-c1ccccc1C(F)(F)F` (stereo partly drawn) [Example 30]: less than 10 nM; for `Cc1cc(-c2nc(-c3ccc4c(c3)CCC4N[C@H]3C[C@H](C(=O)O)C3)no2)ccc1-c1cccc(C(F)(F)F)c1F` (stereo partly drawn) [Example 31]: less than 10 nM.
Take `Cc1cc(-c2nc(-c3ccc4c(c3)CCC4N[C@H]3C[C@H](C(=O)O)C3)no2)c(F)cc1-c1cccc(F)c1F` (stereo partly drawn) [Example 32]: the EC50 was less than 10 nM.
The value for `Cc1cc(-c2nc(-c3ccc4c(c3)CCC4N[C@H]3C[C@H](C(=O)O)C3)no2)ccc1-c1cccc(Cl)c1F` (stereo partly drawn) [Example 34] was less than 10 nM; that for `Cc1cc(-c2nc(-c3ccc4c(c3)CCC4N[C@H]3C[C@H](C(=O)O)C3)no2)ccc1-c1cc(Cl)ccc1F` (stereo partly drawn) [Example 35] was less than 10 nM.
As to `Cc1cc(-c2nc(-c3ccc4c(c3)CCC4N[C@H]3C[C@H](C(=O)O)C3)no2)ccc1-c1cc(C(F)(F)F)ccc1F` (stereo partly drawn) [Example 36], the EC50 was less than 10 nM.
The value for `Cc1cc(-c2nc(-c3ccc4c(c3)CCC4N[C@H]3C[C@H](C(=O)O)C3)no2)ccc1-c1cccc(C)c1F` (stereo partly drawn) [Example 37] was less than 10 nM; that for `COc1cccc(-c2ccc(-c3nc(-c4ccc5c(c4)CCC5N[C@H]4C[C@H](C(=O)O)C4)no3)cc2C)c1F` (stereo partly drawn) [Example 38] was less than 10 nM.
`Cc1cc(-c2nc(-c3ccc4c(c3)CCC4N[C@H]3C[C@H](C(=O)O)C3)no2)ccc1-c1cccc(F)c1C(F)(F)F` (stereo partly drawn) [Example 39]: the EC50 was less than 10 nM.
The value for `Cc1cc(-c2nc(-c3ccc4c(c3)CCC4N[C@H]3C[C@H](C(=O)O)C3)no2)c(F)cc1-c1cccc(F)c1C(F)(F)F` (stereo partly drawn) [Example 40] was less than 10 nM; that for `Cc1cc(-c2nc(-c3ccc4c(c3)CCC4N[C@H]3C[C@H](C(=O)O)C3)no2)c(F)cc1-c1cccc(C(F)(F)F)c1F` (stereo partly drawn) [Example 41] was less than 10 nM.
The value for `Cc1cc(-c2nc(-c3ccc4c(c3)CCC4N[C@H]3C[C@H](C(=O)O)C3)no2)ccc1-c1c(F)cccc1F` (stereo partly drawn) [Example 42] was less than 10 nM; that for `Cc1cc(-c2nc(-c3ccc4c(c3)CCC4N[C@H]3C[C@H](C(=O)O)C3)no2)ccc1-c1c(F)ccc(C)c1Cl` (stereo partly drawn) [Example 43] was less than 10 nM; that for `Cc1cc(-c2nc(-c3ccc4c(c3)CCC4N[C@H]3C[C@H](C(=O)O)C3)no2)ccc1-c1c(Cl)ccc(C)c1F` (stereo partly drawn) [Example 44] was less than 10 nM.
The same measure for `Cc1cc(-c2nc(-c3ccc4c(c3)CCC4N[C@H]3C[C@H](C(=O)O)C3)no2)ccc1-c1c(F)ccc(F)c1F` (stereo partly drawn) [Example 45]: less than 10 nM.
Consider `Cc1cc(-c2nc(-c3ccc4c(c3)CCC4N[C@H]3C[C@H](C(=O)O)C3)no2)ccc1-c1cc(F)cc(F)c1F` (stereo partly drawn) [Example 46], for which the EC50 was less than 10 nM.
The value for `Cc1cc(-c2nc(-c3ccc4c(c3)CCC4N[C@H]3C[C@H](C(=O)O)C3)no2)ccc1-c1cccc(C(F)(F)F)c1C(F)(F)F` (stereo partly drawn) [Example 47] was less than 10 nM.
On to `Cc1cc(-c2nc(-c3ccc4c(c3)CCC4NC3CC(C(=O)O)C3)no2)ccc1-c1cccc([N+](=O)[O-])c1C(F)(F)F` (stereo not drawn) [Example 49], for which the EC50 is less than 10 nM.
The same measure for `Cc1cc(-c2nc(-c3ccc4c(c3)CCC4N[C@H]3C[C@H](C(=O)O)C3)no2)ccc1-c1cccc(Cl)c1C(F)(F)F` (stereo partly drawn) [Example 50]: less than 10 nM.
The same measure for `Cc1cc(-c2nc(-c3ccc4c(c3)CCC4N[C@H]3C[C@H](C(=O)O)C3)no2)ccc1-c1cccc(Br)c1C(F)(F)F` (stereo partly drawn) [Example 51]: less than 10 nM; for `Cc1cc(-c2nc(-c3ccc4c(c3)CCC4N[C@H]3C[C@H](C(=O)O)C3)no2)ccc1-c1cccc(I)c1C(F)(F)F` (stereo partly drawn) [Example 52]: less than 10 nM; for `Cc1cc(-c2nc(-c3cc(C)c4c(c3)CN([C@H]3C[C@H](C(=O)O)C3)C4)no2)ccc1-c1ccccc1C(F)(F)F` [Example 54]: less than 10 nM.
The same measure for `O=C(O)C1CC(NC2CCc3cc(-c4noc(-c5ccc(-c6ccccc6F)c(Cl)c5)n4)ccc32)C1` (stereo not drawn) [Example 55, 1,3-Trans-3-(5-(5-(2-chloro-2′-fluorobiphenyl-4-yl)-1,2,4-oxadiazol-3-yl)-2,3-dihydro-1H-inden-1-ylamino)cyclobutane carboxylic acid hydrochloric acid salt]: less than 10 nM.
For `Cc1cc(-c2nc(-c3ccc4c(c3)CCC4N[C@H]3C[C@H](C(=O)O)C3)no2)ccc1-c1ccccc1Cl` (stereo partly drawn) [Example 58], the EC50 is less than 10 nM.
The value for `Cc1cc(-c2nc(-c3ccc4c(c3)CCC4N[C@H]3C[C@H](C(=O)O)C3)no2)ccc1-c1ccccc1C#N` (stereo partly drawn) [Example 59] was less than 10 nM.
The same measure for `O=C(O)[C@H]1C[C@H](NC2CCc3cc(-c4noc(-c5ccc(-c6ccccc6)c(F)c5)n4)ccc32)C1` (stereo partly drawn) [Example 60]: less than 10 nM; for `O=C(O)[C@H]1C[C@H](NC2CCc3cc(-c4noc(-c5ccc(-c6ccccc6F)c(F)c5)n4)ccc32)C1` (stereo partly drawn) [Example 61]: less than 10 nM; for `O=C(O)[C@H]1C[C@H](NC2CCc3cc(-c4noc(-c5ccc(-c6ccccc6)c(Cl)c5)n4)ccc32)C1` (stereo partly drawn) [Example 62]: less than 10 nM.
The same measure for `N#Cc1ccccc1-c1ccc(-c2nc(-c3ccc4c(c3)CCC4N[C@H]3C[C@H](C(=O)O)C3)no2)cc1Cl` (stereo partly drawn) [Example 63]: less than 10 nM; for `Cc1cc(-c2nc(-c3ccc4c(c3)CCC4N[C@H]3C[C@H](C(=O)O)C3)no2)ccc1-c1cccc(F)c1C#N` (stereo partly drawn) [Example 64]: less than 10 nM.
